Measurements reported in US20250188040A1, “PHARMACEUTICAL COMPOSITIONS COMPRISING WRN HELICASE INHIBITORS” (Vividion Therapeutics, Inc., priority 2022, published 2025).
“And” between values parts separate entries of the source, which are not always exact repeats. Identical values can stand only once. Like-named read-outs stand apart in the source and are kept apart here.

Columns and labels:
[1] = system: SW480 cells; assay: Cell growth assay (CellTiter-Glo 2.0), SW480 MSS cell line; conditions: read-out: Cell Growth Inhibition GI50 SW480
[2] = system: HCT 116 cells; assay: Cell growth assay (CellTiter-Glo 2.0), HCT 116 MSI-H cell line; conditions: read-out: Cell Growth Inhibition GI50 HCT-116
[3] = target: hWRN(519-1227)_C-H3CV-GFP-10His (Homo sapiens, UniProt Q14191); assay: Helicase Assay for WRN Inhibition (ATP-dependent, fluorescence based)
[4] = target: T1, WRN C727 (Homo sapiens, UniProt Q14191); assay: Target engagement, in vitro (lysate), OCI-AML2; type: binding; conditions: read-out: OCI-AML2 WRN C727 TE50 in vitro (lysate)
T1 construct: endogenous in cells; host or cells: OCI-AML2
Description: Cells or cell lysates were treated with a dose response of compound followed by probe treatment, which labels solvent exposed cysteines. Proteins were enzymatically digested with trypsin and probe-labelled peptides were enriched with streptavidin. Isolated peptides were then separated using reversed-phase liquid chromatography on a C18 column (Dionex Ultimated 3000 nano-LC, Thermo). Peptides were analyzed by parallel reaction monitoring mass spectrometry (Exploris 120, Thermo).
Target engagement (%) is calculated relative to DMSO treated control samples.

[5] = WRN Helicase IC50, 30 min preincubation with ATP, 30 min reaction

Sequence of hWRN(519-1227)_C-H3CV-GFP-10His (Q14191 519-1227): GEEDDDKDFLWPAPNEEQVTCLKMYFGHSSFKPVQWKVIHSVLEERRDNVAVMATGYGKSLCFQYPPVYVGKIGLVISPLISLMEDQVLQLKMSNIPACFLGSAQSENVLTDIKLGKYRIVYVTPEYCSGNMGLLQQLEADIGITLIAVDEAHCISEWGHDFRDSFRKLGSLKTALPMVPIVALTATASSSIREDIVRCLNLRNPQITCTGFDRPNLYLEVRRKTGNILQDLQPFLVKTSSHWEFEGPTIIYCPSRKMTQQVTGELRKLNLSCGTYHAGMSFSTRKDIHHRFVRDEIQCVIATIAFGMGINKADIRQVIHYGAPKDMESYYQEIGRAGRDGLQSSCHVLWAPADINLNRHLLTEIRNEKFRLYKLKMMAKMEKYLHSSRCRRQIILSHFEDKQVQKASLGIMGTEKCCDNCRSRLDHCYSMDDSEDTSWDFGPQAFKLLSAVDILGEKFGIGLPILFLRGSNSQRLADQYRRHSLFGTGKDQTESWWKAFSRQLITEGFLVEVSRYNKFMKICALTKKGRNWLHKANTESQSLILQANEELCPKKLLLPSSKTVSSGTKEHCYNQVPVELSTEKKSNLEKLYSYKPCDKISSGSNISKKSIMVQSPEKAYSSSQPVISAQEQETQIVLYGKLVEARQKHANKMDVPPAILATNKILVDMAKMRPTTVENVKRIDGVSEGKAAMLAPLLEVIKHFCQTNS
T1 sequence (Q14191 whole entry): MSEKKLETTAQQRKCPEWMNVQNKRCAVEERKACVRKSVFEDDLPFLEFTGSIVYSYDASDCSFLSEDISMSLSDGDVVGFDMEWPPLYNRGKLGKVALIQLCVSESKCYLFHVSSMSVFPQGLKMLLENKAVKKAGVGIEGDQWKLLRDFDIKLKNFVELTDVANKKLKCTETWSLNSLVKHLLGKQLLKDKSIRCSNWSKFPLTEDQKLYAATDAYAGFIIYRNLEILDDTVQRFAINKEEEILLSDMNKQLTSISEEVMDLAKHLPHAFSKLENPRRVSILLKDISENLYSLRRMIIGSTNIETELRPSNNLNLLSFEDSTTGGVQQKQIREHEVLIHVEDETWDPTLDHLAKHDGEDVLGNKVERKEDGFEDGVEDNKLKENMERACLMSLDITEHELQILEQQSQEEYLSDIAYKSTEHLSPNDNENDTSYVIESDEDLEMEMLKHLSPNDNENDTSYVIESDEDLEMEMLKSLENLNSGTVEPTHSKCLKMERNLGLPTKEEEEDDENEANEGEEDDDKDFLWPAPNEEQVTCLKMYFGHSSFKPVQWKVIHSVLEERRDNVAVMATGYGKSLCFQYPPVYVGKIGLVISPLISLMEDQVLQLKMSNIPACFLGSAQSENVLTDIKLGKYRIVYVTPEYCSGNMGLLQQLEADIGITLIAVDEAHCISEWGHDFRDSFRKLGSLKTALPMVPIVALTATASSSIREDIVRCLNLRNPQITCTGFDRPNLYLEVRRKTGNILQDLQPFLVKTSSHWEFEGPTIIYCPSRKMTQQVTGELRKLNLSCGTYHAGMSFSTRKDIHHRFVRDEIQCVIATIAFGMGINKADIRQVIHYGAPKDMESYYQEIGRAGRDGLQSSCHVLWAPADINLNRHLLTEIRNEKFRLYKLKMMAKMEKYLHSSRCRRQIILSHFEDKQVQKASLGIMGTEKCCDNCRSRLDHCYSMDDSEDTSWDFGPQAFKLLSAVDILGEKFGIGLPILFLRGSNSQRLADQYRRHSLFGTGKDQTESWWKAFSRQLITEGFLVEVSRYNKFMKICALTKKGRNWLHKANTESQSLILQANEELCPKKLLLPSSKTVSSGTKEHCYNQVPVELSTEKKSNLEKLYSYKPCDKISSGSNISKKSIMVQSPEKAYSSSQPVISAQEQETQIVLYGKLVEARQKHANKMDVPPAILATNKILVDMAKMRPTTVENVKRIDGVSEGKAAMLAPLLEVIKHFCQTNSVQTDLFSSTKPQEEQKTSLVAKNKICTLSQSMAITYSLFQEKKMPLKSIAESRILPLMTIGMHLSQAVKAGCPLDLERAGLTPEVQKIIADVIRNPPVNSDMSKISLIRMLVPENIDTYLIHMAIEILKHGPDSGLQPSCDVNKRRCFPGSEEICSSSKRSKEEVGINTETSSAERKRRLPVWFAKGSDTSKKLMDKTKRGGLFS

SMILES | IC50 [3, 5] [µM] | IC50 [4] [µM] | also measured
CC(F)(F)c1ncc(C(=O)NC(C=CS(C)(=O)=O)C2CC(F)(F)C2)c(Oc2ccccc2)n1 (single isomer, unassigned) [192/193] | – | – | GI50 ([1]; Homo sapiens, SW480, 120 h): 24 µM; GI50 ([2]; Homo sapiens, HCT-116, 120 h): 0.023 µM
C=C(C#N)[C@H](C)NC(=O)c1cnc(C(F)(F)C2CC2)nc1Oc1ccccc1 [275/276, (S)—N-(3-cyanobut-3-en-2-yl)-2-(cyclopropyldifluoromethyl)-4-phenoxypyrimidine-5-carboxamide/(R)—N-(3-cyanobut-3-en-2-yl)-2-(cyclopropyldifluoromethyl)-4-phenoxypyrimidine-5-carboxamide] | – | – | GI50 ([1]; SW480 (MSS), 5-day incubation): 10 µM and 9.4 µM
C=C(C#N)[C@@H](NC(=O)c1cnc(C(C)(F)F)nc1Oc1ccccc1)C1CC1 [278/279, (S)—N-(2-cyano-1-cyclopropylallyl)-2-(1,1-difluoroethyl)-4-phenoxypyrimidine-5-carboxamide/(R)—N-(2-cyano-1-cyclopropylallyl)-2-(1,1-difluoroethyl)-4-phenoxypyrimidine-5-carboxamide] | – | – | GI50 ([1]; SW480 (MSS), 5-day incubation): 11 µM; GI50 ([2]; HCT-116 (MSI-H), 5-day incubation): 0.35 µM
CS(=O)(=O)/C=C/CNC(=O)c1cnc(C2CCCC2)nc1Oc1ccccc1 [Example 1, (E)-2-cyclopentyl-N-(3-(methylsulfonyl)allyl)-4-phenoxypyrimidine-5-carboxamide] | – | – | GI50 ([2]; Homo sapiens, HCT-116, 120 h): 2.1 µM
C[C@@H](/C=C/S(C)(=O)=O)NC(=O)c1cnc(C(C)(F)F)nc1Oc1ccccc1 [Example 86, (S,E)-2-(1,1-difluoroethyl)-N-(4-(methylsulfonyl)but-3-en-2-yl)-4-phenoxypyrimidine-5-carboxamide] | – | – | GI50 ([1]; Homo sapiens, SW480, 120 h): 41.7 µM; GI50 ([2]; Homo sapiens, HCT-116, 120 h): 0.224 µM
C[C@@H](/C=C/S(C)(=O)=O)NC(=O)c1cnc(C2CC2)nc1OCC1CC1 [Example 150, (S,E)-2-cyclopropyl-4-(cyclopropylmethoxy)-N-(4-(methylsulfonyl)but-3-en-2-yl)pyrimidine-5-carboxamide] | 43 | > 100 | –
C[C@@H](/C=C/S(C)(=O)=O)NC(=O)c1cnc(C2CC2)nc1O[C@H]1C[C@H](Cl)C1 [Example 151, 4-((1r,3S)-3-chlorocyclobutoxy)-2-cyclopropyl-N—((S,E)-4-(methylsulfonyl)but-3-en-2-yl)pyrimidine-5-carboxamide] | 59 | > 100 | –
C[C@@H](/C=C/S(C)(=O)=O)NC(=O)c1cnc(C(C)(C)C)nc1OC1CCC(F)(F)CC1 [Example 155, (S,E)-2-(tert-butyl)-4-((4,4-difluorocyclohexyl)oxy)-N-(4-(methylsulfonyl)but-3-en-2-yl)pyrimidine-5-carboxamide] | 15 | 20 | –
C[C@@H](/C=C/S(C)(=O)=O)NC(=O)c1cnc(C(C)(C)C)nc1OC1CC(F)(F)C1 [Example 156, (S,E)-2-(tert-butyl)-4-(3,3-difluorocyclobutoxy)-N-(4-(methylsulfonyl)but-3-en-2-yl)pyrimidine-5-carboxamide] | 15 | 40 | –
C[C@@H](/C=C/S(C)(=O)=O)NC(=O)c1cnc(C(C)(C)C)nc1OC1(C#N)CCCC1 [Example 161, (S,E)-2-(tert-butyl)-4-((1-cyanocyclopentyl)oxy)-N-(4-(methylsulfonyl)but-3-en-2-yl)pyrimidine-5-carboxamide] | 154 | > 100 | –
CS(=O)(=O)/C=C/[C@@H](NC(=O)c1cnc(N2CC(F)(F)C2)nc1Oc1ccccc1)C1CC1 [Example 183, (S,E)-N-(1-cyclopropyl-3-(methylsulfonyl)allyl)-2-(3,3-difluoroazetidin-1-yl)-4-phenoxypyrimidine-5-carboxamide] | 2.9 | 64.4 | –
CN(C/C=C/S(C)(=O)=O)C(=O)c1cnc(C2CCCC2)nc1Oc1ccccc1 [Example 187, (E)-2-cyclopentyl-N-methyl-N-(3-(methylsulfonyl)allyl)-4-phenoxypyrimidine-5-carboxamide] | 52 | > 100 | –
CS(=O)(=O)/C=C/CNC(=O)c1cnc(-c2ccn[nH]2)nc1Oc1ccccc1 [Example 209, (E)-N-(3-(methylsulfonyl)allyl)-4-phenoxy-2-(1H-pyrazol-5-yl)pyrimidine-5-carboxamide] | 18 | > 100 | –
CS(=O)(=O)/C=C/[C@@H](NC(=O)c1cc2c(nc1Oc1ccccc1)C(F)(F)CC2)C1CC1 [Example 237, (S,E)-N-(1-cyclopropyl-3-(methylsulfonyl)allyl)-7,7-difluoro-2-phenoxy-6,7-dihydro-5H-cyclopenta[b]pyridine-3-carboxamide] | 17 | 0.5 | –
C[C@@H](/C=C/S(C)(=O)=O)NC(=O)c1cnc(C2CCCC2)nc1C1CCCCC1 [Example 239, (S,E)-4-cyclohexyl-2-cyclopentyl-N-(4-(methylsulfonyl)but-3-en-2-yl)pyrimidine-5-carboxamide] | 148 | > 100 | –
C[C@@H](/C=C/S(C)(=O)=O)NC(=O)c1cnc(C2CC2)c2c1OC1(CCCC1)C2 [Example 259, (S,E)-4′-cyclopropyl-N-(4-(methylsulfonyl)but-3-en-2-yl)-3′H-spiro[cyclopentane-1,2′-furo[3,2-c]pyridine]-7′-carboxamide] | – | 0.12 | IC50 [3]: 7 µM
CC(C)Oc1cc(C2CCCC2)ccc1C(=O)NC/C=C/S(C)(=O)=O [Example 281, (E)-4-cyclopentyl-2-isopropoxy-N-(3-(methylsulfonyl)allyl)benzamide] | 51 | 41.8 | –

Now from value to compound, other results behind:

IC50 [3, 5] [µM] | IC50 [4] [µM] | SMILES | also measured
128 | > 100 | Cc1nc(C2CCCC2)nc(Oc2ccccc2)c1C(=O)N[C@@H](C)/C=C/S(C)(=O)=O [Example 162, (S,E)-2-cyclopentyl-4-methyl-N-(4-(methylsulfonyl)but-3-en-2-yl)-6-phenoxypyrimidine-5-carboxamide] | –
137 | > 100 | C[C@@H](/C=C/S(C)(=O)=O)NC(=O)c1cnc(N2CC3(CCC3)C2)nc1Oc1ccccc1 [Example 170, (S,E)-N-(4-(methylsulfonyl)but-3-en-2-yl)-4-phenoxy-2-(2-azaspiro[3.3]heptan-2-yl)pyrimidine-5-carboxamide] | –
48 | > 100 | C[C@@H](/C=C/S(C)(=O)=O)NC(=O)c1cnc(N2CCC(F)(F)C2)nc1Oc1ccccc1 [Example 173, (S,E)-2-(3,3-difluoropyrrolidin-1-yl)-N-(4-(methylsulfonyl)but-3-en-2-yl)-4-phenoxypyrimidine-5-carboxamide] | –
20 | > 100 | C[C@@H](/C=C/S(C)(=O)=O)NC(=O)c1cnc(C2CC2)c(F)c1Oc1ccccc1 [Example 205, (S,E)-6-cyclopropyl-5-fluoro-N-(4-(methylsulfonyl)but-3-en-2-yl)-4-phenoxynicotinamide] | –
52 | > 100 | C[C@@H](/C=C/S(C)(=O)=O)NC(=O)c1ncc(C2=CCCC2)nc1Oc1ccccc1 [Example 207, (S,E)-5-(cyclopent-1-en-1-yl)-N-(4-(methylsulfonyl)but-3-en-2-yl)-3-phenoxypyrazine-2-carboxamide] | –
51 | > 100 | C[C@@H](/C=C/S(C)(=O)=O)NC(=O)c1cnc(C2=CCCOC2)nc1Oc1ccccc1 [Example 211, (S,E)-2-(5,6-dihydro-2H-pyran-3-yl)-N-(4-(methylsulfonyl)but-3-en-2-yl)-4-phenoxypyrimidine-5-carboxamide] | –
31 | > 100 | C[C@@H](/C=C/S(C)(=O)=O)NC(=O)c1cnc(C2CCCOC2)nc1Oc1ccccc1 (stereo partly drawn) [Example 212, N—((S,E)-4-(methylsulfonyl)but-3-en-2-yl)-4-phenoxy-2-(tetrahydro-2H-pyran-3-yl)pyrimidine-5-carboxamide] | –
53 | > 100 | C[C@@H](/C=C/S(C)(=O)=O)NC(=O)c1cnc(C2CCOCC2)nc1Oc1ccccc1 [Example 238, (S,E)-N-(4-(methylsulfonyl)but-3-en-2-yl)-4-phenoxy-2-(tetrahydro-2H-pyran-4-yl)pyrimidine-5-carboxamide] | –
67 | > 100 | C[C@@H](/C=C/S(C)(=O)=O)NC(=O)c1cnc(CC2CCCCC2)nc1Oc1ccccc1 [Example 240, (S,E)-2-(cyclohexylmethyl)-N-(4-(methylsulfonyl)but-3-en-2-yl)-4-phenoxypyrimidine-5-carboxamide] | –
43 | > 100 | C[C@@H](/C=C/S(C)(=O)=O)NC(=O)c1cc2c(nc1Oc1ccccc1)CCC2 [Example 243, (S,E)-N-(4-(methylsulfonyl)but-3-en-2-yl)-2-phenoxy-6,7-dihydro-5H-cyclopenta[b]pyridine-3-carboxamide] | –
20 | 0.49 | COc1ncc(C(=O)N[C@H](/C=C/S(C)(=O)=O)C2CC2)c(Oc2ccccc2)n1 [Example 244, (S,E)-N-(1-cyclopropyl-3-(methylsulfonyl)allyl)-2-methoxy-4-phenoxypyrimidine-5-carboxamide] | –
42 | > 100 | CC(=O)Nc1nc(C2CCCC2)nc(Oc2ccccc2)c1C(=O)N[C@@H](C)/C=C/S(C)(=O)=O [Example 256, (S,E)-4-acetamido-2-cyclopentyl-N-(4-(methylsulfonyl)but-3-en-2-yl)-6-phenoxypyrimidine-5-carboxamide] | –
